# Results taken from ChEMBL document CHEMBL5537201, “Discovery of Unique Bis-Substituted Aromatic Amide Derivatives as Novel Highly Potent Antibiotics for Combating Methicillin-Resistant Staphylococcus aureus (MRSA)” (J Med Chem, 2024).
# Active and inactive are the calls of the source. The rule behind the calls is not given here.
# Assays:
# Staphylococcus aureus [1] = experiment: Antimicrobial activity against Staphylococcus aureus ATCC6538 assessed as reduction in bacterial growth incubated for 24 hrs by two-fold broth dilution method; format: functional
# Staphylococcus aureus [2] = experiment: Antimicrobial activity against Staphylococcus aureus N315 assessed as reduction in bacterial growth incubated for 24 hrs by two-fold broth dilution method; format: functional
# Staphylococcus aureus [3] = experiment: Antimicrobial activity against methicillin resistant Staphylococcus aureus clinical isolate MRS121 assessed as reduction in bacterial growth incubated for 24 hrs by two-fold broth dilution method; format: functional
# [4] = Hemolytic activity in rabbit Red blood cell assessed as hemolysis incubated for 1 hr by two-fold microdilution method; format: toxicity, cell-based, Oryctolagus cuniculus, Erythrocyte; conditions: red blood cells (erythrocytes)
# [5] = Selectivity index, ratio of IC50 for African green monkey Vero E6 cells to MIC for Staphylococcus aureus ATCC6538; format: toxicity; conditions: read-out: Selectivity Index
# A549 = experiment: Cytotoxicity against human A549 cells assessed as reduction in cell viability measured after 24 hrs by CCK-8 method; format: functional, cell-based; conditions: A549, 24 h
# Staphylococcus aureus [6] = experiment: Antimicrobial activity against methicillin resistant Staphylococcus aureus clinical isolate MRS97 assessed as reduction in bacterial growth incubated for 24 hrs by two-fold broth dilution method; format: functional
# Staphylococcus aureus [7] = experiment: Antimicrobial activity against methicillin resistant Staphylococcus aureus clinical isolate MRS108 assessed as reduction in bacterial growth incubated for 24 hrs by two-fold broth dilution method; format: functional
# Staphylococcus aureus [8] = experiment: Antimicrobial activity against methicillin resistant Staphylococcus aureus clinical isolate MRS70 assessed as reduction in bacterial growth incubated for 24 hrs by two-fold broth dilution method; format: functional
# Staphylococcus aureus [9] = experiment: Antimicrobial activity against methicillin resistant Staphylococcus aureus clinical isolate MRS1 assessed as reduction in bacterial growth incubated for 24 hrs by two-fold broth dilution method; format: functional
# Staphylococcus aureus [10] = experiment: Antimicrobial activity against methicillin resistant Staphylococcus aureus clinical isolate MRS207 assessed as reduction in bacterial growth incubated for 24 hrs by two-fold broth dilution method; format: functional
# Staphylococcus aureus [11] = experiment: Antimicrobial activity against methicillin resistant Staphylococcus aureus clinical isolate MRS23 assessed as reduction in bacterial growth incubated for 24 hrs by two-fold broth dilution method; format: functional
# Staphylococcus aureus [12] = experiment: Antimicrobial activity against methicillin resistant Staphylococcus aureus clinical isolate MRS152 assessed as reduction in bacterial growth incubated for 24 hrs by two-fold broth dilution method; format: functional
# Staphylococcus hominis = experiment: Antimicrobial activity against methicillin-resistant Staphylococcus hominis assessed as reduction in bacterial growth incubated for 24 hrs by two-fold broth dilution method; format: functional
# Staphylococcus aureus [13] = experiment: Antimicrobial activity against methicillin resistant Staphylococcus aureus clinical isolate MRS200 assessed as reduction in bacterial growth incubated for 24 hrs by two-fold broth dilution method; format: functional
# [14] = Cytotoxicity against HEK293 cells assessed as reduction in cell viability measured after 24 hrs by CCK-8 method; format: toxicity, cell-based; conditions: human
# [15] = Cytotoxicity against human HaCaT cells assessed as reduction in cell viability measured after 24 hrs by CCK-8 method; format: toxicity, cell-based
# [16] = Cytotoxicity against African green monkey Vero E6 cells assessed as reduction in cell viability measured after 24 hrs by CCK-8 method; format: toxicity, cell-based, Chlorocebus sabaeus, Vero C1008
# [17] = Selectivity index, ratio of HC50 for rabbit Red blood cell to MIC for Staphylococcus aureus ATCC6538; format: toxicity; conditions: red blood cells (erythrocytes), read-out: Selectivity Index
# Staphylococcus aureus [18] = experiment: Antimicrobial activity against methicillin resistant Staphylococcus aureus clinical isolate MRS273 assessed as reduction in bacterial growth incubated for 24 hrs by two-fold broth dilution method; format: functional
# Staphylococcus aureus [19] = experiment: Antimicrobial activity against methicillin resistant Staphylococcus aureus clinical isolate MRS153 assessed as reduction in bacterial growth incubated for 24 hrs by two-fold broth dilution method; format: functional
# Staphylococcus aureus [20] = experiment: Antimicrobial activity against methicillin resistant Staphylococcus aureus clinical isolate MRS84 assessed as reduction in bacterial growth incubated for 24 hrs by two-fold broth dilution method; format: functional
# HeLa = experiment: Cytotoxicity against human HeLa cells assessed as reduction in cell viability measured after 24 hrs by CCK-8 method; format: functional, cell-based
# Streptomyces albus = experiment: Antimicrobial activity against Streptomyces albus SHBC D11158 assessed as reduction in bacterial growth incubated for 24 hrs by two-fold broth dilution method; format: functional
# Staphylococcus aureus [21] = experiment: Induction of drug resistance in Staphylococcus aureus ATCC6538 assessed as change in MIC measured after 10 passages; format: functional
compound,measurement,setting,value
CCCCC(=O)N(Cc1cc2ccccc2o1)c1ccc2ccccc2c1O,MIC,Staphylococcus aureus [1],31.2 µg/mL
same,MIC,Staphylococcus aureus [2],62.5 µg/mL
O=C(CCC(F)(F)F)N(Cc1cc2ccccc2s1)c1cc(-c2ccccc2C(F)(F)F)ccc1O,MIC,Staphylococcus aureus [1],> 16 µg/mL
same,MIC,Staphylococcus aureus [2],> 16 µg/mL
O=C(CCCCl)N(Cc1cc2ccccc2s1)c1ccc2ccccc2c1O,MIC,Staphylococcus aureus [1],7.8 µg/mL
same,MIC,Staphylococcus aureus [2],31.2 µg/mL
O=C(CCC(F)(F)F)N(Cc1cc2ccccc2s1)c1cc(-c2ccc(C(F)(F)F)cc2)ccc1O,MIC,Staphylococcus aureus [3],6 µg/mL
same,HC50 at 1 h,[4],5570 µg/mL
same,selectivity ratio,[5],11
same,IC50,A549,3.61 µg/mL
same,MIC,Staphylococcus aureus [6],3 µg/mL
same,MIC,Staphylococcus aureus [1],0.5 µg/mL
same,MIC,Staphylococcus aureus [7],16 µg/mL
same,MIC,Staphylococcus aureus [8],6 µg/mL
same,MIC,Staphylococcus aureus [9],16 µg/mL
same,MIC,Staphylococcus aureus [10],16 µg/mL
same,MIC,Staphylococcus aureus [11],16 µg/mL
same,MIC,Staphylococcus aureus [12],6 µg/mL
same,MIC,Staphylococcus hominis,8 µg/mL
same,MIC,Staphylococcus aureus [13],16 µg/mL
same,IC50 at 24 h,[14],2.79 µg/mL
same,MIC,Staphylococcus aureus [2],2 µg/mL
same,IC50 at 24 h,[15],3.92 µg/mL
same,IC50 at 24 h,[16],5.55 µg/mL
same,selectivity ratio,[17],> 1000
same,MIC,Staphylococcus aureus [18],6 µg/mL
same,MIC,Staphylococcus aureus [19],6 µg/mL
same,MIC,Staphylococcus aureus [20],6 µg/mL
same,IC50,HeLa,5 µg/mL
same,MIC,Streptomyces albus,8 µg/mL
same,Activity,Staphylococcus aureus [21],inactive
O=C(CCC(F)(F)F)N(Cc1cc2ccccc2s1)c1cc(-c2ccc(Cl)cc2)ccc1O,MIC,Staphylococcus aureus [3],3 µg/mL
same,HC50 at 1 h,[4],1920 µg/mL
same,selectivity ratio,[5],21
same,IC50,A549,16.2 µg/mL
same,MIC,Staphylococcus aureus [6],3 µg/mL
same,MIC,Staphylococcus aureus [1],1 µg/mL
same,MIC,Staphylococcus aureus [7],6 µg/mL
same,MIC,Staphylococcus aureus [8],6 µg/mL
same,MIC,Staphylococcus aureus [9],6 µg/mL
same,MIC,Staphylococcus aureus [10],16 µg/mL
same,MIC,Staphylococcus aureus [11],16 µg/mL
same,MIC,Staphylococcus aureus [12],6 µg/mL
same,MIC,Staphylococcus hominis,4 µg/mL
same,MIC,Staphylococcus aureus [13],16 µg/mL
same,IC50 at 24 h,[14],> 25 µg/mL
same,MIC,Staphylococcus aureus [2],1 µg/mL
same,IC50 at 24 h,[15],13.8 µg/mL
same,IC50 at 24 h,[16],21.5 µg/mL
same,selectivity ratio,[17],> 1000
same,MIC,Staphylococcus aureus [18],16 µg/mL
same,MIC,Staphylococcus aureus [19],6 µg/mL
same,MIC,Staphylococcus aureus [20],3 µg/mL
same,IC50,HeLa,22.8 µg/mL
same,MIC,Streptomyces albus,4 µg/mL
same,Activity,Staphylococcus aureus [21],Active
CCCCC(=O)N(Cc1ccc2c(c1)OCO2)c1ccc2ccccc2c1O,MIC,Staphylococcus aureus [1],31.2 µg/mL
same,MIC,Staphylococcus aureus [2],31.2 µg/mL
O=C(CCC(F)(F)F)N(Cc1cc2ccccc2s1)c1ccc(-c2ccccc2)cc1O,MIC,Staphylococcus aureus [1],2 µg/mL
same,MIC,Staphylococcus aureus [2],3 µg/mL
O=C(CCC(F)(F)F)N(Cc1cc2ccccc2s1)c1c(O)cccc1-c1ccccc1,MIC,Staphylococcus aureus [1],2 µg/mL
same,MIC,Staphylococcus aureus [2],6 µg/mL
O=C(CCC(F)(F)F)N(Cc1cc2ccccc2s1)c1cccc(-c2ccccc2)c1O,MIC,Staphylococcus aureus [1],> 16 µg/mL
same,MIC,Staphylococcus aureus [2],> 16 µg/mL
CCCCC(=O)N(Cc1cc2ccccc2c2ccccc12)c1ccc2ccccc2c1O,MIC,Staphylococcus aureus [1],62.5 µg/mL
same,MIC,Staphylococcus aureus [2],125 µg/mL
O=C(CCC(F)(F)F)N(Cc1cc2ccccc2s1)c1cc(-c2ccc(Br)cc2)ccc1O,MIC,Staphylococcus aureus [1],2 µg/mL
same,MIC,Staphylococcus aureus [2],3 µg/mL
CC(C)(C)c1ccc(-c2ccc(O)c(N(Cc3cc4ccccc4s3)C(=O)CCC(F)(F)F)c2)cc1,MIC,Staphylococcus aureus [1],2 µg/mL
same,MIC,Staphylococcus aureus [2],1 µg/mL
COc1cc(-c2ccccc2)ccc1N(Cc1cc2ccccc2s1)C(=O)CCC(F)(F)F,MIC,Staphylococcus aureus [1],> 16 µg/mL
same,MIC,Staphylococcus aureus [2],> 16 µg/mL
O=C(CCC(F)(F)F)N(Cc1cc2ccccc2s1)c1cc(-c2ccncc2)ccc1O,MIC,Staphylococcus aureus [1],> 16 µg/mL
same,MIC,Staphylococcus aureus [2],> 16 µg/mL
CCCCCC(=O)N(Cc1cc2ccccc2s1)c1ccc2ccccc2c1O,MIC,Staphylococcus aureus [1],> 250 µg/mL
same,MIC,Staphylococcus aureus [2],> 250 µg/mL
COc1ccc(-c2ccc(O)c(N(Cc3cc4ccccc4s3)C(=O)CCC(F)(F)F)c2)cc1,MIC,Staphylococcus aureus [3],16 µg/mL
same,MIC,Staphylococcus aureus [6],16 µg/mL
same,MIC,Staphylococcus aureus [1],1 µg/mL
same,MIC,Staphylococcus aureus [7],> 16 µg/mL
same,MIC,Staphylococcus aureus [8],> 16 µg/mL
same,MIC,Staphylococcus aureus [9],> 16 µg/mL
same,MIC,Staphylococcus aureus [10],> 16 µg/mL
same,MIC,Staphylococcus aureus [11],> 16 µg/mL
same,MIC,Staphylococcus aureus [12],> 16 µg/mL
same,MIC,Staphylococcus hominis,> 32 µg/mL
same,MIC,Staphylococcus aureus [13],16 µg/mL
same,MIC,Staphylococcus aureus [2],1 µg/mL
same,MIC,Staphylococcus aureus [18],16 µg/mL
same,MIC,Staphylococcus aureus [19],16 µg/mL
same,MIC,Staphylococcus aureus [20],> 16 µg/mL
same,MIC,Streptomyces albus,> 32 µg/mL
COc1ccccc1-c1ccc(O)c(N(Cc2cc3ccccc3s2)C(=O)CCC(F)(F)F)c1,MIC,Staphylococcus aureus [3],6 µg/mL
same,MIC,Staphylococcus aureus [6],3 µg/mL
same,MIC,Staphylococcus aureus [1],1 µg/mL
same,MIC,Staphylococcus aureus [7],6 µg/mL
same,MIC,Staphylococcus aureus [8],16 µg/mL
same,MIC,Staphylococcus aureus [9],16 µg/mL
same,MIC,Staphylococcus aureus [10],> 16 µg/mL
same,MIC,Staphylococcus aureus [11],16 µg/mL
same,MIC,Staphylococcus aureus [12],6 µg/mL
same,MIC,Staphylococcus hominis,> 32 µg/mL
same,MIC,Staphylococcus aureus [13],16 µg/mL
same,MIC,Staphylococcus aureus [2],1 µg/mL
same,MIC,Staphylococcus aureus [18],3 µg/mL
same,MIC,Staphylococcus aureus [19],16 µg/mL
same,MIC,Staphylococcus aureus [20],3 µg/mL
same,MIC,Streptomyces albus,16 µg/mL
O=C(CCC(F)(F)F)N(Cc1cc2ccccc2s1)c1ccc(-c2ccccc2)c(O)c1,MIC,Staphylococcus aureus [1],2 µg/mL
same,MIC,Staphylococcus aureus [2],> 16 µg/mL
CCCCC(=O)N(Cc1ccc2oc3ccccc3c2c1)c1ccc2ccccc2c1O,MIC,Staphylococcus aureus [1],62.5 µg/mL
same,MIC,Staphylococcus aureus [2],125 µg/mL
O=C(CCC(F)(F)F)N(Cc1cc2ccccc2s1)c1ccc2ccccc2c1O,MIC,Staphylococcus aureus [1],2 µg/mL
same,MIC,Staphylococcus aureus [2],2 µg/mL
CCCCC(=O)N(Cc1cc2ccccc2s1)c1ccc2ccccc2c1O,MIC,Staphylococcus aureus [1],15.6 µg/mL
same,MIC,Staphylococcus aureus [2],15.6 µg/mL
O=C(CCC(F)(F)F)N(Cc1cc2ccccc2s1)c1cc(-c2cncnc2)ccc1O,MIC,Staphylococcus aureus [1],> 16 µg/mL
same,MIC,Staphylococcus aureus [2],> 16 µg/mL
CCCCC(=O)N(Cc1ccc2sccc2c1)c1ccc2ccccc2c1O,MIC,Staphylococcus aureus [1],31.2 µg/mL
same,MIC,Staphylococcus aureus [2],62.5 µg/mL
CCCCC(=O)N(Cc1ccc2c(c1)CCO2)c1ccc2ccccc2c1O,MIC,Staphylococcus aureus [1],62.5 µg/mL
same,MIC,Staphylococcus aureus [2],62.5 µg/mL
COc1cccc(-c2ccc(O)c(N(Cc3cc4ccccc4s3)C(=O)CCC(F)(F)F)c2)c1,MIC,Staphylococcus aureus [3],> 16 µg/mL
same,MIC,Staphylococcus aureus [6],6 µg/mL
same,MIC,Staphylococcus aureus [1],1 µg/mL
same,MIC,Staphylococcus aureus [7],6 µg/mL
same,MIC,Staphylococcus aureus [8],> 16 µg/mL
same,MIC,Staphylococcus aureus [9],> 16 µg/mL
same,MIC,Staphylococcus aureus [10],> 16 µg/mL
same,MIC,Staphylococcus aureus [11],6 µg/mL
same,MIC,Staphylococcus aureus [12],> 16 µg/mL
same,MIC,Staphylococcus hominis,> 32 µg/mL
same,MIC,Staphylococcus aureus [13],> 16 µg/mL
same,MIC,Staphylococcus aureus [2],1 µg/mL
same,MIC,Staphylococcus aureus [18],16 µg/mL
same,MIC,Staphylococcus aureus [19],> 16 µg/mL
same,MIC,Staphylococcus aureus [20],16 µg/mL
same,MIC,Streptomyces albus,> 32 µg/mL
C=CC(=O)N(Cc1cc2ccccc2s1)c1ccc2ccccc2c1O,MIC,Staphylococcus aureus [1],7.8 µg/mL
same,MIC,Staphylococcus aureus [2],7.8 µg/mL
CCCCC(=O)N(Cc1cc(C(C)(C)C)cc(C(C)(C)C)c1)c1ccc2ccccc2c1O,MIC,Staphylococcus aureus [1],62.5 µg/mL
same,MIC,Staphylococcus aureus [2],62.5 µg/mL
C=CCCC(=O)N(Cc1cc2ccccc2s1)c1ccc2ccccc2c1O,MIC,Staphylococcus aureus [1],> 250 µg/mL
same,MIC,Staphylococcus aureus [2],> 250 µg/mL
CCCCC(=O)N(Cc1ccc2c(c1)OCCO2)c1ccc2ccccc2c1O,MIC,Staphylococcus aureus [1],31.2 µg/mL
same,MIC,Staphylococcus aureus [2],62.5 µg/mL
CCCC(=O)N(Cc1cc2ccccc2s1)c1ccc2ccccc2c1O,MIC,Staphylococcus aureus [1],> 250 µg/mL
same,MIC,Staphylococcus aureus [2],> 250 µg/mL
